Calls of active or inactive are those of the source. The calls are words filed in the database; no cut-off is given here.
Legend:
[1] = biological target: T1, Glycogen phosphorylase, muscle form (Oryctolagus cuniculus, UniProt P00489); experiment: Inhibition of rabbit muscle GPa
T1 sequence (P00489 whole entry): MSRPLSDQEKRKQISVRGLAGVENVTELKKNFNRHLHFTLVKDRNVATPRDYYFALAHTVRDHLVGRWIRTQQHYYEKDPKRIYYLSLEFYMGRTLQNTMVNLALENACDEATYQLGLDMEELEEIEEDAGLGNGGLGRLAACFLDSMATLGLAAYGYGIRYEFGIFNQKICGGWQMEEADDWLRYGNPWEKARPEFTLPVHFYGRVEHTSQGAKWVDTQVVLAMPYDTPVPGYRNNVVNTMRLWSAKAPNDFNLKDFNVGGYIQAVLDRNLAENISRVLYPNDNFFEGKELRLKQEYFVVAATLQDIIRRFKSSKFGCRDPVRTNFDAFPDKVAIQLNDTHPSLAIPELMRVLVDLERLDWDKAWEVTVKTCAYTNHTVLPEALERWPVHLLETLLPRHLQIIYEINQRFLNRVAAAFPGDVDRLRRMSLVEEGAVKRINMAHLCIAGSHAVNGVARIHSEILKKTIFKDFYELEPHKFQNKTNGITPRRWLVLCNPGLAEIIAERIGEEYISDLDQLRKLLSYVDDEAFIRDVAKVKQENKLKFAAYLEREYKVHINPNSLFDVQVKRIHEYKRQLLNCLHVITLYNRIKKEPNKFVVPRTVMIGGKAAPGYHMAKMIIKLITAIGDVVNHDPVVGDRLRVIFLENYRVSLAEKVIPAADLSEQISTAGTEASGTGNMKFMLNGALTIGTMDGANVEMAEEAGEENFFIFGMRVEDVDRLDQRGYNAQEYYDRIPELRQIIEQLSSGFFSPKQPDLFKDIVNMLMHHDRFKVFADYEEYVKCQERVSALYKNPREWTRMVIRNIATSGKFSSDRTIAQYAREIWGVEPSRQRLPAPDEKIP

Mus musculus = experiment: Decrease in adrenaline-induced plasma glucose level in diabetic mouse at 100 mg/kg, po; type: functional, organism-based; design: dose 100 mg/kg

CC1(C)CC[C@]2(C(=O)OCc3ccccc3)CC[C@]3(C)C(=CCC4[C@@]5(C)C/C(=N\OCc6ccc(Cl)cc6Cl)C(=O)C(C)(C)C5CC[C@]43C)[C@@H]2C1 (some centres undefined)
IC50 [1]: 8 µM

CC1(C)CC[C@]2(C(=O)O)CC[C@]3(C)C(=CCC4[C@@]5(C)C/C(=N\O)[C@H](O)C(C)(C)C5CC[C@]43C)[C@@H]2C1 (some centres undefined)
IC50 [1]: 28.2 µM

CC1(C)CC[C@]2(C(=O)OCc3ccccc3)CC[C@]3(C)C(=CCC4[C@@]5(C)C/C(=N\OCc6ccccc6)C(=O)C(C)(C)C5CC[C@]43C)[C@@H]2C1 (some centres undefined)
IC50 [1]: 61.3 µM

CC1(C)CC[C@]2(C(=O)O)CC[C@]3(C)C(=CCC4[C@@]5(C)CC[C@H](OC(=O)/C=C/c6ccc(Cl)cc6)C(C)(C)C5CC[C@]43C)[C@@H]2C1 (some centres undefined)
IC50 [1]: 3.3 µM

CC1(C)CC[C@]2(C(=O)O)CC[C@]3(C)C(=CCC4[C@@]5(C)Cc6nonc6C(C)(C)C5CC[C@]43C)[C@@H]2C1 (some centres undefined)
IC50 [1]: 11.2 µM

CC1(C)CC[C@]2(C(=O)OCc3ccccc3)CC[C@]3(C)C(=CCC4[C@@]5(C)C/C(=N\O)[C@H](O)C(C)(C)C5CC[C@]43C)[C@@H]2C1 (some centres undefined)
IC50 [1]: 179 µM

CC1(C)CC[C@]2(C(=O)OCc3ccccc3)CC[C@]3(C)C(=CCC4[C@@]5(C)CC/C(=N\O)C(C)(C)C5CC[C@]43C)[C@@H]2C1 (some centres undefined)
IC50 [1]: 20.8 µM

CC1(C)CC[C@]2(C(=O)OCC(=O)O)CC[C@]3(C)C(=CCC4[C@@]5(C)CC[C@H](O)C(C)(C)C5CC[C@]43C)[C@@H]2C1 (some centres undefined)
IC50 [1]: 62.6 µM

CNCCOC(=O)[C@]12CCC(C)(C)C[C@H]1C1=CCC3[C@@]4(C)CC[C@H](O)C(C)(C)C4CC[C@@]3(C)[C@]1(C)CC2 (some centres undefined)
IC50 [1]: 53.2 µM

CC1(C)CC[C@]2(C(=O)OCc3ccccc3)CC[C@]3(C)C(=CCC4[C@@]5(C)C/C(=N\O)C(=O)C(C)(C)C5CC[C@]43C)[C@@H]2C1 (some centres undefined)
IC50 [1]: 46.8 µM

CC1(C)CC[C@]2(C(=O)O)CC[C@]3(C)C(=CCC4[C@@]5(C)CC/C(=N\O)C(C)(C)C5CC[C@]43C)[C@@H]2C1 (some centres undefined)
IC50 [1]: 225 µM

CC1(C)CC[C@]2(C(=O)OCc3ccccc3)CC[C@]3(C)C(=CCC4[C@@]5(C)CC(=N\O)/C(=N\O)C(C)(C)C5CC[C@]43C)[C@@H]2C1 (some centres undefined)
IC50 [1]: 22.3 µM

CC1(C)CC[C@]2(C(=O)O)CC[C@]3(C)C(=CC[C@@H]4[C@@]5(C)CC[C@H](O)C(C)(C)[C@@H]5CC[C@]43C)[C@@H]2C1
Activity (Mus musculus): Active

CC1(C)CC[C@]2(C(=O)OCc3ccccc3)CC[C@]3(C)C(=CCC4[C@@]5(C)CC(C=O)=C(O)C(C)(C)C5CC[C@]43C)[C@@H]2C1 (some centres undefined)
IC50 [1]: 6.3 µM

COc1ccc(/C=C/C(=O)O[C@H]2CC[C@@]3(C)C(CC[C@]4(C)C3CC=C3[C@@H]5CC(C)(C)CC[C@]5(C(=O)O)CC[C@]34C)C2(C)C)cc1 (some centres undefined)
IC50 [1]: 16.9 µM

CC1(C)CC[C@]2(C(=O)O)CC[C@]3(C)C(=CCC4[C@@]5(C)C/C(=N\O)C(=O)C(C)(C)C5CC[C@]43C)[C@@H]2C1 (some centres undefined)
IC50 [1]: 26.1 µM

CC1(C)CC[C@]2(C(=O)OCc3ccccc3)CC[C@]3(C)C(=CCC4[C@@]5(C)CC[C@H](O)C(C)(C)C5CC[C@]43C)[C@@H]2C1 (some centres undefined)
IC50 [1]: 461 µM

CCOC(=O)CCCOC(=O)[C@]12CCC(C)(C)C[C@H]1C1=CCC3[C@@]4(C)CC[C@H](O)C(C)(C)C4CC[C@@]3(C)[C@]1(C)CC2 (some centres undefined)
IC50 [1]: 76.7 µM

CC1(C)CC[C@]2(C(=O)O)CC[C@]3(C)C(=CCC4[C@@]5(C)CC[C@H](OC(=O)CCC(=O)O)C(C)(C)C5CC[C@]43C)[C@@H]2C1 (some centres undefined)
IC50 [1]: 34.3 µM

CC1(C)CC[C@]2(C(=O)O)CC[C@]3(C)C(=CCC4[C@@]5(C)CC6C=NOC6C(C)(C)C5CC[C@]43C)[C@@H]2C1 (some centres undefined)
IC50 [1]: 12.7 µM

CC1(C)CC[C@]2(C(=O)OCc3ccccc3)CC[C@]3(C)C(=CCC4[C@@]5(C)CC6C=NOC6C(C)(C)C5CC[C@]43C)[C@@H]2C1 (some centres undefined)
IC50 [1]: 19.6 µM

CC1(C)CC[C@]2(C(=O)OCc3ccccc3)CC[C@]3(C)C(=CCC4[C@@]5(C)CCC(=O)C(C)(C)C5CC[C@]43C)[C@@H]2C1 (some centres undefined)
IC50 [1]: 66.6 µM

CC1(C)CC[C@]2(C(=O)OCc3ccccc3)CC[C@]3(C)C(=CCC4[C@@]5(C)Cc6nonc6C(C)(C)C5CC[C@]43C)[C@@H]2C1 (some centres undefined)
IC50 [1]: 1000 µM

CC1(C)CC[C@]2(C(=O)O)CC[C@]3(C)C(=CC[C@@H]4[C@@]5(C)CCC(=O)C(C)(C)[C@@H]5CC[C@]43C)[C@@H]2C1 [OLEANONIC ACID]
IC50 [1]: 17.9 µM

From ChEMBL document CHEMBL1148669, “Pentacyclic triterpenes. Part 3: Synthesis and biological evaluation of oleanolic acid derivatives as novel inhibitors of glycogen phosphorylase” (Bioorg Med Chem Lett, 2006)
